According to doi:10.1101/2021.09.30.462449v1 (biorxiv, 2021):

Assays:
Assay in all cases: biochemical
Details in all cases: read-out: % inhibition mean (Z'Lyte)
INSRR (IRR) = INSRR (IRR) (Homo sapiens, UniProt P14616)
EEF2K = EEF2K (Homo sapiens, UniProt O00418)
CLK3 = CLK3 (Homo sapiens, UniProt P49761)
CLK2 = CLK2 (Homo sapiens, UniProt P49760)
GRK5 = GRK5 (Homo sapiens, UniProt P34947)
CLK1 = CLK1 (Homo sapiens, UniProt P49759)
PIM3 = PIM3 (Homo sapiens, UniProt Q86V86)
ZAP70 = ZAP70 (Homo sapiens, UniProt P43403)
AMPK (A1/B2/G3) = AMPK (A1/B2/G3) (Homo sapiens, UniProt Q13131)
FLT1 (VEGFR1) = FLT1 (VEGFR1) (Homo sapiens, UniProt P17948)
MAPK3 (ERK1) = MAPK3 (ERK1) (Homo sapiens, UniProt P27361)
DYRK3 = DYRK3 (Homo sapiens, UniProt O43781)
DYRK4 = DYRK4 (Homo sapiens, UniProt Q9NR20)
CHEK2 (CHK2) = CHEK2 (CHK2) (Homo sapiens, UniProt O96017)
PRKCB1 (PKC beta I) = PRKCB1 (PKC beta I) (Homo sapiens, UniProt P05771)
AMPK (A2/B2/G3) = AMPK (A2/B2/G3) (Homo sapiens, UniProt P54646)
FGFR3 = FGFR3 (Homo sapiens, UniProt P22607)
PTK6 (Brk) = PTK6 (Brk) (Homo sapiens, UniProt Q13882)
BLK = BLK (Homo sapiens, UniProt P51451)
MET (cMet) = MET (cMet) (Homo sapiens, UniProt P08581)
PAK3 = PAK3 (Homo sapiens, UniProt O75914)
SRPK1 = SRPK1 (Homo sapiens, UniProt Q96SB4)
MATK (HYL) = MATK (HYL) (Homo sapiens, UniProt P42679)
MAP3K8 (COT) = MAP3K8 (COT) (Homo sapiens, UniProt P41279)
PLK3 = PLK3 (Homo sapiens, UniProt Q9H4B4)
PDGFRA T674I = PDGFRA T674I (Homo sapiens, UniProt P16234, T674I)
[1] = target: CSNK1E (CK1 epsilon) R178C (Homo sapiens, UniProt P49674, R178C)
DAPK3 (ZIPK) = DAPK3 (ZIPK) (Homo sapiens, UniProt O43293)
PRKG2 (PKG2) = PRKG2 (PKG2) (Homo sapiens, UniProt Q13237)

Sequence of AMPK (A2/B2/G3) (P54646 whole entry): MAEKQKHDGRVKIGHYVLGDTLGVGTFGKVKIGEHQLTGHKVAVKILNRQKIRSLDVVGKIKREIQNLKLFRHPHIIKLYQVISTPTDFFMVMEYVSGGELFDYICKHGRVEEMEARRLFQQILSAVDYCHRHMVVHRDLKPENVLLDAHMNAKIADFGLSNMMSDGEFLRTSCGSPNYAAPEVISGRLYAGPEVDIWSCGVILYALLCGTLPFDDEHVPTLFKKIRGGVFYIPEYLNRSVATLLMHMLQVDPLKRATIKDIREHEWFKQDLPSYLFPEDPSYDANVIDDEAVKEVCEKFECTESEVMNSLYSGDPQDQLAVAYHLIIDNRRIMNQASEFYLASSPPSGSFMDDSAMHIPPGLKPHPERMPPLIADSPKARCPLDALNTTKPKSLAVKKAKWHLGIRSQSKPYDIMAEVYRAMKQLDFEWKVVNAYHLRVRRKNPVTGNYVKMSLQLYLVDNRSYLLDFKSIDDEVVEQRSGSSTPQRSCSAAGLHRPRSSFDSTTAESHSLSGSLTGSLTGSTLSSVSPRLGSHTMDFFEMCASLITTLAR
Sequence of AMPK (A2/B2/G3) (O43741 whole entry partner): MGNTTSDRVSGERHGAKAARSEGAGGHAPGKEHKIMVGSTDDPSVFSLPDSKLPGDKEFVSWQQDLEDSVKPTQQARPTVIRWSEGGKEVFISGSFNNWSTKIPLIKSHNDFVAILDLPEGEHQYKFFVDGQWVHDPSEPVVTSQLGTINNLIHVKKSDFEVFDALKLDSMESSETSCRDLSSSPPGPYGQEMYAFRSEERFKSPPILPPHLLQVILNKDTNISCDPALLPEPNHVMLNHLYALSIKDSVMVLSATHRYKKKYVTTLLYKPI
Sequence of AMPK (A2/B2/G3) (Q9UGI9 whole entry partner): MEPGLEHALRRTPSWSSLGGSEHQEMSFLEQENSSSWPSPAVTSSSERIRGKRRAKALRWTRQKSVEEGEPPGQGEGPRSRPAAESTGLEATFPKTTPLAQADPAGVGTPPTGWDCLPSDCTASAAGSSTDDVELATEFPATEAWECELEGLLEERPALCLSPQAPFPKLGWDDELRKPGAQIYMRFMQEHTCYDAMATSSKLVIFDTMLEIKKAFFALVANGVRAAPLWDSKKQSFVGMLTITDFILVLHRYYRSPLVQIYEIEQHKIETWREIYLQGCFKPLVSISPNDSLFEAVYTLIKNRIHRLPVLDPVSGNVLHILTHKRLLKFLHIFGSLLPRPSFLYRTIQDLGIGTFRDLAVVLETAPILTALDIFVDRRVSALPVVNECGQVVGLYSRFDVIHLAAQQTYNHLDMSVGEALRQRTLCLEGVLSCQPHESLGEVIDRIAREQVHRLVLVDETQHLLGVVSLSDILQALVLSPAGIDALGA
Sequence of AMPK (A1/B2/G3) (Q13131 whole entry): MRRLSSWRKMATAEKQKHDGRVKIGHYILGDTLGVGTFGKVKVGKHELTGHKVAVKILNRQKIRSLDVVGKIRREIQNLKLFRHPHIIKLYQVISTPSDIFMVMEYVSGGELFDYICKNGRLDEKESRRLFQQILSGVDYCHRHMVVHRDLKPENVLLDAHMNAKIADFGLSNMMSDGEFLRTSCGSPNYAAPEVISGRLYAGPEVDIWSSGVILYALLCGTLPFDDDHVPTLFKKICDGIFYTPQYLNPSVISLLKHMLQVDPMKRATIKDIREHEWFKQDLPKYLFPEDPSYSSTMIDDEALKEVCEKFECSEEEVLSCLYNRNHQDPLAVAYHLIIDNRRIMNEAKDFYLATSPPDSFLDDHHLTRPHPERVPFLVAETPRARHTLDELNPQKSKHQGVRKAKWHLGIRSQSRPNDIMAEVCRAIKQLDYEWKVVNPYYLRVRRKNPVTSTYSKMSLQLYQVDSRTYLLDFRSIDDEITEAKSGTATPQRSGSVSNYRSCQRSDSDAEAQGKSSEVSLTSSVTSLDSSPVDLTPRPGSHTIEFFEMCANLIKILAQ
Sequence of AMPK (A1/B2/G3) (O43741 whole entry partner): as the sequence (O43741 whole entry partner) above
Sequence of AMPK (A1/B2/G3) (Q9UGI9 whole entry partner): as the sequence (Q9UGI9 whole entry partner) above
Sequence of DYRK3 (O43781 whole entry): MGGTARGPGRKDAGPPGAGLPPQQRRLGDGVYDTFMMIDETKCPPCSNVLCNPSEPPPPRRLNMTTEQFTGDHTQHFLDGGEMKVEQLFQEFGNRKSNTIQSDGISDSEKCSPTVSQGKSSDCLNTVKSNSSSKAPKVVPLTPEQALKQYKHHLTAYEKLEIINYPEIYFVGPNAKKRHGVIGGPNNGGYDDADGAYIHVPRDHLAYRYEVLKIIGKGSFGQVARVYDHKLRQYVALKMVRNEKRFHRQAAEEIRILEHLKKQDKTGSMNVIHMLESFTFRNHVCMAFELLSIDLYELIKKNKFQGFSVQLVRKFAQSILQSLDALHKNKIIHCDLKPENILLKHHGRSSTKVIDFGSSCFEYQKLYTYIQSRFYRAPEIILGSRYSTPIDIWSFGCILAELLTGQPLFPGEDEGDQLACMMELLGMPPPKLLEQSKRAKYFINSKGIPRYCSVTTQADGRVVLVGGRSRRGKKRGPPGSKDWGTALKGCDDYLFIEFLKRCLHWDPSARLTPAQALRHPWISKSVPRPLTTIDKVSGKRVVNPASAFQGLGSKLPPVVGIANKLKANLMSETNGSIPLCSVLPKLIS
Sequence of PLK3 (Q9H4B4 whole entry): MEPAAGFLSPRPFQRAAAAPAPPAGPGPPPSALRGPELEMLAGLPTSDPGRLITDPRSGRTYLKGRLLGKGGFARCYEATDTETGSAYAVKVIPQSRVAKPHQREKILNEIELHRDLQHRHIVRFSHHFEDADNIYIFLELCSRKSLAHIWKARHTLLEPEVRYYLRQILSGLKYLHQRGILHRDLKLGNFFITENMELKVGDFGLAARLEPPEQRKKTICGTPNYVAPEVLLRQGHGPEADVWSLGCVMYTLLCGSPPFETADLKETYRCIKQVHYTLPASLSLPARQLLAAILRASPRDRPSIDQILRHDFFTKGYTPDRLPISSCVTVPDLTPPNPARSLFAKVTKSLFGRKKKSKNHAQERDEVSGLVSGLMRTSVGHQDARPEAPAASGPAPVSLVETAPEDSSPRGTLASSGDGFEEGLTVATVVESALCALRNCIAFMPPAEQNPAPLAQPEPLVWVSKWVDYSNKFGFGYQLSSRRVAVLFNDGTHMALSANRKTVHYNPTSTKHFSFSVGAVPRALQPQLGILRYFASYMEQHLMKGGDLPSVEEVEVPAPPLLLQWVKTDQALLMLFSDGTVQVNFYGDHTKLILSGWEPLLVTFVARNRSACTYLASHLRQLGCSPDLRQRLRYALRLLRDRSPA
Sequence of MAPK3 (ERK1) (P27361 whole entry): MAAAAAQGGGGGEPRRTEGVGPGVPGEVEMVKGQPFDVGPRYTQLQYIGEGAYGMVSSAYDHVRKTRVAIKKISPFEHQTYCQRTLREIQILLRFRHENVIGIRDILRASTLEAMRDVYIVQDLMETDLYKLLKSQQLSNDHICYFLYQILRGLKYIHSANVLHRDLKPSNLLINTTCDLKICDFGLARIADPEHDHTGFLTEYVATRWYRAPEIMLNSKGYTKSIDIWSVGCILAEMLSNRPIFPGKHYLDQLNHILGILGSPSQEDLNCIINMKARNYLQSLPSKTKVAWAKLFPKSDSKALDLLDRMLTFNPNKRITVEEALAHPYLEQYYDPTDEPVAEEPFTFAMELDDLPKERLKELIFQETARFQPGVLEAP
Sequence of DAPK3 (ZIPK) (O43293 whole entry): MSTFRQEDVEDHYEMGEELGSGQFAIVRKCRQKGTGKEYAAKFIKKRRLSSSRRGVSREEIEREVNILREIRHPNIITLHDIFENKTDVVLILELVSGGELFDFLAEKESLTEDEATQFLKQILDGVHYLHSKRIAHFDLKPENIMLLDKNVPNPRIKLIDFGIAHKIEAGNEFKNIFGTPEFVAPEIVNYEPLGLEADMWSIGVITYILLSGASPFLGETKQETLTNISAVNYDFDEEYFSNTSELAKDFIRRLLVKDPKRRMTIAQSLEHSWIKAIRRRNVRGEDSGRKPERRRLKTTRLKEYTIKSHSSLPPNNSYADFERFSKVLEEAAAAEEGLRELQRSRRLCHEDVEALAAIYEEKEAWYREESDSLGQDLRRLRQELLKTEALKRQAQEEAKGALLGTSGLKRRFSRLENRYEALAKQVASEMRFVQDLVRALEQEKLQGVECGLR
Sequence of CLK1 (P49759 whole entry): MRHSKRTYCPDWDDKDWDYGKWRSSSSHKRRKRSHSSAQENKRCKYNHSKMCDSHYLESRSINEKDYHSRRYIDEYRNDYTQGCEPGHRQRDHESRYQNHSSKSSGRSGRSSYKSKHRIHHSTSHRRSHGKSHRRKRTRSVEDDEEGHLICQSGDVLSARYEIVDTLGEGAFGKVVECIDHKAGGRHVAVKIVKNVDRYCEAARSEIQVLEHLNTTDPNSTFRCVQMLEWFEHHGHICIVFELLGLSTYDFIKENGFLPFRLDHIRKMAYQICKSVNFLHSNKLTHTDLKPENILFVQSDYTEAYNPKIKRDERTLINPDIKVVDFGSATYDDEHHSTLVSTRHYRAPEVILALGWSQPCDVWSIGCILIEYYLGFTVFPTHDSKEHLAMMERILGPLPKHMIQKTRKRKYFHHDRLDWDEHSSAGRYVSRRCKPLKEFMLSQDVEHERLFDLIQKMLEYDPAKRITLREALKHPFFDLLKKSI
Sequence of PTK6 (Brk) (Q13882 whole entry): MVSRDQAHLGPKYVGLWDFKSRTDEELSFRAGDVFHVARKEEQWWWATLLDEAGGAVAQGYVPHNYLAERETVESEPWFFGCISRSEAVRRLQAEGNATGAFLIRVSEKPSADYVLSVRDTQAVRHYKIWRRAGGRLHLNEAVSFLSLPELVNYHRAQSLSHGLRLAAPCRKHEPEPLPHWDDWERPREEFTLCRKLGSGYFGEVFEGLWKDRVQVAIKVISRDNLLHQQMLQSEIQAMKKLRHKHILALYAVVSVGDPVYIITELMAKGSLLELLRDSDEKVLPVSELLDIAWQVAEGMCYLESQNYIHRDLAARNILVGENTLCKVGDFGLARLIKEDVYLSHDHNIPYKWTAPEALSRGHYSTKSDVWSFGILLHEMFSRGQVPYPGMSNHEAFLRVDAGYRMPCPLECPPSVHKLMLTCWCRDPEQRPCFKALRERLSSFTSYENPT

`COc1ccc2nc3cc(Cl)ccc3c(Nc3cc(CN4CCCC4)c(O)c(CN4CCCC4)c3)c2n1` [Pyronaridine, 4-[(7-Chloro-2-methoxybenzo[b][1,5]naphthyridin-10-yl)amino]-2,6-bis(1-pyrrolidinylmethyl)phenol phosphate (1:4)] gave an inhibition at 1 µM (INSRR (IRR)) of -1%, an inhibition at 1 µM (EEF2K) of 1% and an inhibition at 1 µM (CLK3) of -3%. It also gave an inhibition at 1 µM (CLK2) of 3%, an inhibition at 1 µM (GRK5) of 10% and an inhibition at 1 µM (CLK1) of -1%. It also gave an inhibition at 1 µM (PIM3) of 12%, an inhibition at 1 µM (ZAP70) of 4% and an inhibition at 1 µM (AMPK (A1/B2/G3)) of 4%. The inhibition at 1 µM (FLT1 (VEGFR1)) was -6%, the inhibition at 1 µM (MAPK3 (ERK1)) was 6% and the inhibition at 1 µM (DYRK3) was 1%. For the same compound, the inhibition at 1 µM (DYRK4) was 0%, the inhibition at 1 µM (CHEK2 (CHK2)) was 0% and the inhibition at 1 µM (PRKCB1 (PKC beta I)) was 2%. The inhibition at 1 µM (AMPK (A2/B2/G3)) was 2%, the inhibition at 1 µM (FGFR3) was -2% and the inhibition at 1 µM (PTK6 (Brk)) was -4%. For the same compound, the inhibition at 1 µM (BLK) was 3%, the inhibition at 1 µM (MET (cMet)) was -1% and the inhibition at 1 µM (PAK3) was -7%. It also gave an inhibition at 1 µM (SRPK1) of 1%, an inhibition at 1 µM (MATK (HYL)) of -2% and an inhibition at 1 µM (MAP3K8 (COT)) of -6%. The inhibition at 1 µM (PLK3) was 28%, the inhibition at 1 µM (PDGFRA T674I) was 0% and the inhibition at 1 µM [1] was 1%. For the same compound, the inhibition at 1 µM (DAPK3 (ZIPK)) was 2% and the inhibition at 1 µM (PRKG2 (PKG2)) was 1%.
